Assays:
[1] = system: c-myc in Human AML MV4-11 cells; test: Inhibition of cMYC expression (mRNA, real-time PCR) in MV4-11 cells; type: cell-based; settings: 3 h treatment, cMYC mRNA by real-time PCR
Protocol: MV4-11 cells (CRL-9591) were plated at a density of 2.5×10^4 cells per well in 96 well U-bottom plates and treated with increasing concentrations of test compound or DMSO (0.1%) in IMDM media containing 10% FBS and penicillin/streptomycin, and incubated for 3 h at 37′C. Triplicate wells were used for each concentration. Cells were pelleted by centrifugation and harvested using the mRNA Catcher PLUS kit according to manufacturer's instructions. The eluted mRNA isolated was then used in a one-step quantitative real-time PCR reaction, using components of the RNA UltraSense™ One-Step Kit (Life Technologies) together with Applied Biosystems TaqMan® primer-probes for cMYC and Cyclophilin. Real-time PCR plates were run on a ViiA™7 real time PCR machine (Applied Biosystems), data was analyzed, normalizing the Ct values for cMYC to an internal control, prior to determining the fold expression of each sample, relative to the control.

Human AML MV-4-11 cells = test: Inhibition of cell proliferation in MV4-11 cells (CellTiter Aqueous One); type: cell-based; settings: for IC50: MV4-11, 72 h; for Cell Proliferation activity: 72 h
Protocol: MV4-11 cells (CRL-9591) were plated at a density of 5×10^4 cells per well in 96 well flat bottom plates and treated with increasing concentrations of test compound or DMSO (0.1%) in IMDM media containing 10% FBS and penicillin/streptomycin. Triplicate wells were used for each concentration and a well containing only media was used as a control. Plates were incubated at 37° C., 5% CO2 for 72 h before adding 20 µL of the CellTiter Aqueous One Solution (Promega) to each well and incubated at 37° C., 5% CO2 for an additional 3-4 h. The absorbance was read at 490 nm in a spectrophotometer and the percentage of cell titer relative to DMSO-treated cells was calculated after correcting for background by subtracting the blank well's signal. IC50 values were calculated using the GraphPad Prism software.

hIL-6 mRNA = test: Inhibition of hIL-6 mRNA transcription in LPS-stimulated U937 macrophages; type: cell-based, Human; settings: 1 h pretreatment, LPS 3 h; for IC50: Homo sapiens, U-937, PMA-differentiated U937 cells, read-out: IL-6 activity; for IL-6 activity: PMA-differentiated U937 cells
Protocol: Human leukemic monocyte lymphoma U937 cells (CRL-1593.2) were plated at a density of 3.2×10^4 cells per well in a 96-well plate in 100 μL RPMI-1640 containing 10% FBS and penicillin/streptomycin, and differentiated into macrophages for 3 days in 60 ng/mL PMA ([…]) at 37° C. in 5% CO2 prior to the addition of compound. The cells were pretreated for 1 h with increasing concentrations of test compound in 0.1% DMSO prior to stimulation with 1 ug/mL lipopolysaccharide from Escherichia coli. Triplicate wells were used for each concentration. The cells were incubated at 37° C., 5% CO2 for 3 h before the cells were harvested. At time of harvest, media was removed and cells were rinsed in 200 μL PBS. Cells were harvested using the mRNA Catcher PLUS kit according to manufacturer's instructions. The eluted mRNA was then used in a one-step quantitative real-time PCR reaction using components of the RNA UltraSense™ One-Step Kit (Life Technologies) together with Applied Biosystems TaqMan® primer-probes for hIL-6 and Cyclophilin. Real-time PCR plates were run on a ViiA™7 real time PCR machine (Applied Biosystems), data was analyzed, normalizing the Ct values for hlL-6 to an internal control, prior to determining the fold expression of each sample, relative to the control.

[2] = target: Brd4 bromodomain 1 (BRD4(1)) (Homo sapiens, UniProt O60885); test: Inhibition of tetra-acetylated histone H4 binding to Brd4 bromodomain 1, measured by FRET (HTRF); parameters: made in house; host or cells: E. coli BL21(DE3); settings: 2 h at room temperature
Protocol: Proteins were cloned and overexpressed with a N-terminal 6×His tag, then purified by nickel affinity followed by size exclusion chromatography. Briefly, E. coli BL21(DE3) cells were transformed with a recombinant expression vector encoding N-terminally Nickel affinity tagged bromodomains from Brd2, Brd3, Brd4. Cell cultures were incubated at 37° C. with shaking to the appropriate density and induced overnight with IPTG. The supernatant of lysed cells was loaded onto Ni-IDA column for purification. Eluted protein was pooled, concentrated and further purified by size exclusion chromatography. Fractions representing monomeric protein were pooled, concentrated, aliquoted, and frozen at −80° C. for use in subsequent experiments.
Binding of tetra-acetylated histone H4 and BET bromodomains was confirmed by a Homogenous Time Resolved Fluorescence Resonance Energy Transfer (HTRF®) method. N-terminally His-tagged bromodomains (200 nM) and biotinylated tetra-acetylated histone H4 peptide (25-50 nM, Millipore) were incubated in the presence of Europium Cryptate-labeled streptavidin (Cisbio Cat. #610SAKLB) and XL665-labeled monoclonal anti-His antibody (Cisbio Cat. #61HISXLB) in a white 96 well microtiter plate (Greiner). For inhibition assays, serially diluted test compound was added to these reactions in a 0.2% final concentration of DMSO. Duplicate wells were used for each concentration tested. Final buffer concentrations were 30 mM HEPES pH 7.4, 30 mM NaCl, 0.3 mM CHAPS, 20 mM phosphate pH 7.0, 320 mM KF, 0.08% BSA. After a 2 h incubation at room temperature, fluorescence was measured at 665 and 620 nm with a SynergyH4 plate reader (Biotek). The binding inhibitory activity was shown by a decrease in 665 nm relative to 620 nm fluorescence. IC50 values were determined from a dose response curve.

SMILES	IC50 [1] [nM]	IC50 (Human AML MV-4-11 cells) [nM]	IC50 (hIL-6 mRNA) [nM]	IC50 [2] [nM]	Cell Proliferation activity (Human AML MV-4-11 cells)	IL-6 activity (hIL-6 mRNA)
Cc1noc(C)c1-c1cc(-c2cccc(C#N)c2)c2nc[nH]c2c1 [Example Compound 2, 3-(6-(3,5-dimethylisoxazol-4-yl)-1H-benzo[d]imidazol-4-yl) benzonitrile]	300 to 3000	300 to 3000	300 to 3000	≤ 300	–	–
Cc1noc(C)c1-c1cc(-c2c(C)noc2C)c2nccn2c1 [Example Compound 8, 4,4′-(imidazo [1,2-a]pyridine-6,8-diyl) bis(3,5-dimethylisoxazole)]	–	–	–	300 to 3000	Not active	Not active
Cc1noc(C)c1-c1cc(Nc2ccccc2)c2nncn2c1 [Example Compound 15, 6-(3,5-dimethylisoxazol-4-yl)-N-phenyl-[1,2,4] triazolo[4,3-a]pyridin-8-amine]	3000 to 30000	–	3000 to 30000	≤ 300	Not active	–
Cc1noc(C)c1-c1cc(-c2ccnn2C)c2nc[nH]c2c1 [Example Compound 16, 3,5-dimethyl-4-(4-(1-methyl-1H-pyrazol-5-yl)-1H-benzo[d]imidazol-6-yl)isoxazole]	300 to 3000	300 to 3000	≤ 300	≤ 300	–	–
Cc1nn(C)cc1-c1cc(-c2c(C)noc2C)cc2[nH]cnc12 [Example Compound 18, 4-(4-(1,3-dimethyl-1H-pyrazol-4-yl)-1H-benzo [d]imidazol-6-yl)-3,5-dimethyl isoxazole]	300 to 3000	300 to 3000	≤ 300	≤ 300	–	–
Cc1noc(C)c1-c1cc(-c2cncnc2)c2nc[nH]c2c1 [Example Compound 22, 3,5-dimethyl-4-(4-(pyrimidin-5-yl)-1H-benzo[d]imidazol-6-yi)isoxazole]	–	–	300 to 3000	300 to 3000	Not active	–
Cc1noc(C)c1-c1cc(-c2cccc3c2cnn3C)c2nc[nH]c2c1 [Example Compound 23, 3,5-dimethyl-4-(4-(1-methyl-1H-indazol-4-yl)-1H-benzo[d]imidazol-6-yl)isoxazole]	300 to 3000	300 to 3000	≤ 300	≤ 300	–	–
Cc1noc(C)c1-c1cc(Nc2ncccn2)c2nc[nH]c2c1 [Example Compound 43, 6-(3,5-dimethyl-isoxazol-4-yl)-N-(pyrimidin-2-yl)-1H-benzo[d] imidazol-4-amine]	–	3000 to 30000	300 to 3000	≤ 300	–	–
COc1nccc(C)c1-c1cc(-c2c(C)noc2C)cc2[nH]c(C)nc12 [Example Compound 114, 4-(4-(2-methoxy-4-methyl-pyridin-3-yl)-2-methyl-1H-benzo[d]imidazol-6-yl)-3,5-dimethyl isoxazole]	–	–	≤ 300	300 to 3000	–	–
Cc1nc2c(N3C(=O)CCC3C)cc(-c3c(C)noc3C)cc2[nH]1 (stereo not drawn) [Example Compound 121, 1-(6-(3,5-dimethylisoxazol-4-yl)-2-methyl-1H-benzo[d]imidazol-4-yl)-5-methylpyrrolidin-2-one]	–	–	300 to 3000	300 to 3000	Not active	–
Cc1nc2c(-c3cccc(S(C)(=O)=O)c3)cc(-c3c(C)noc3C)cc2[nH]1 [Example Compound 154, 3,5-dimethyl-4-(2-methyl-4-(3-(methyl-sulfonyl)phenyl)-1H-benzo[d]imidazol-6-yl)isoxazole]	–	300 to 3000	≤ 300	≤ 300	–	–
Cc1nc2c(/C=C/c3ccccc3)cc(-c3c(C)noc3C)cc2[nH]1 [Example Compound 158, (E)-3,5-dimethyl-4-(2-methyl-4-styryl-1H-benzo[d]imidazol-6-yl)isoxazole]	–	300 to 3000	300 to 3000	≤ 300	–	–
Cc1nc2c(NC(=O)c3ccccc3)cc(-c3c(C)noc3C)cc2[nH]1 [Example Compound 165, N-(6-(3,5-dimethyl-isoxazol-4-yl)-2-methyl-1H-benzo[d]imidazol-4-yl)benzamide]	–	3000 to 30000	300 to 3000	300 to 3000	–	–
Cc1nc2c(Oc3cc(C(=O)O)ccc3C)cc(-c3c(C)noc3C)cc2[nH]1 [Example Compound 175, 3-((6-(3,5-dimethylisoxazol-4-yl)-2-methyl-1H-benzo[d]imidazol-4-yl)oxy)-4-methylbenzoic acid]	–	–	–	≤ 300	Not active	Not active
Cc1noc(C)c1-c1cc(-c2cccc(C(N)=O)c2C)c2nc(N3CCOCC3)[nH]c2c1 [Example Compound 208, 3-(6-(3,5-dimethyl-isoxazol-4-yl)-2-morpholino-1H-benzo[d]imidazol-4-yl)-2-methyl benzamide]	–	–	≤ 300	≤ 300	–	–
Cc1ccc(C#N)cc1-c1cc(-c2c(C)noc2C)cc2[nH]c(NCc3cccnc3)nc12 [Example Compound 211, 3-(6-(3,5-dimethyl-isoxazol-4-yl)-2-((pyridin-3-ylmethyl)amino)-1H-benzo[d]imidazol-4-yl)-4-methyl-benzonitrile]	–	–	300 to 3000	≤ 300	–	–
Cc1noc(C)c1-c1cc(-c2c(C)nn(C)c2C)c2nc(NCc3ccccc3)[nH]c2c1 [Example Compound 212, N-benzyl-6-(3,5-dimethyl-isoxazol-4-yl)-4-(1,3,5-trimethyl-1H-pyrazol-4-yl)-1H-benzo[d] imidazol-2-amine]	–	–	≤ 300	≤ 300	–	–
Cc1noc(C)c1-c1cc(-c2c(C)nn(C)c2C)c2nc(N3CCCC3)[nH]c2c1 [Example Compound 213, 3,5-dimethyl-4-(2-(pyrrolidin-1-yl)-4-(1,3,5-trimethyl-1H-pyrazol-4-yl)-1H-benzo[d]imidazol-6-yl)isoxazole]	–	–	≤ 300	≤ 300	–	–
Cc1ccc(C#N)cc1-c1cc(-c2c(C)noc2C)cc2[nH]c(N3CCCC3)nc12 [Example Compound 215, 3-(6-(3,5-dimethylisoxazol-4-yl)-2-(pyrrolidin-1-yl)-1H-benzo[d]imidazol-4-yl)-4-methylbenzonitrile]	≤ 300	–	300 to 3000	≤ 300	–	–
Cc1noc(C)c1-c1cc(-c2cccc(C#N)c2C)c2nc(NC3CCN(C)CC3)[nH]c2c1 [Example Compound 216, 3-(6-(3,5-dimethyl-isoxazol-4-yl)-2-((1-methyl-piperidin-4-yl)amino)-1H-benzo[d]imidazol-4-yl)-2-methyl benzonitrile]	300 to 3000	–	≤ 300	≤ 300	–	–
